Values of other authors as cited in US11766438B2, “Pharmaceutical compositions of tofacitinib for oral administration” (Slayback Pharma LLC, priority 2020, dated 2023).
Where two headings read alike, the source gives them in different places.

Structure (SMILES): C[C@@H]1CCN(C(=O)CC#N)C[C@@H]1N(C)c1ncnc2[nH]ccc12.O=C(O)CC(O)(CC(=O)O)C(=O)O [Tofacitinib citrate, (3R,4R)-4-methyl-3-(methyl-7H-pyrrolo[2,3-d]pyrimidin-4-ylamino)-β-oxo-1-piperidinepropanenitrile, 2-hydroxy-1,2,3-propanetricarboxylate (1:1)]
- Solubility (aqueous solution of pH 1 to 3.9): 3480 to 28000 µg/mL
- Solubility (aqueous solution of pH 4.53 to 8): 200 to 590 µg/mL
